We go through four molecules from ChEMBL document CHEMBL2321828, “Interrogation of the Active Sites of Protein Arginine Deiminases (PAD1, -2, and -4) Using Designer Probes” (ACS Med Chem Lett, 2013).

For test [1], the target named is T1, Protein-arginine deiminase type-1 (Homo sapiens) (UniProt Q9ULC6).
T1 sequence (whole entry): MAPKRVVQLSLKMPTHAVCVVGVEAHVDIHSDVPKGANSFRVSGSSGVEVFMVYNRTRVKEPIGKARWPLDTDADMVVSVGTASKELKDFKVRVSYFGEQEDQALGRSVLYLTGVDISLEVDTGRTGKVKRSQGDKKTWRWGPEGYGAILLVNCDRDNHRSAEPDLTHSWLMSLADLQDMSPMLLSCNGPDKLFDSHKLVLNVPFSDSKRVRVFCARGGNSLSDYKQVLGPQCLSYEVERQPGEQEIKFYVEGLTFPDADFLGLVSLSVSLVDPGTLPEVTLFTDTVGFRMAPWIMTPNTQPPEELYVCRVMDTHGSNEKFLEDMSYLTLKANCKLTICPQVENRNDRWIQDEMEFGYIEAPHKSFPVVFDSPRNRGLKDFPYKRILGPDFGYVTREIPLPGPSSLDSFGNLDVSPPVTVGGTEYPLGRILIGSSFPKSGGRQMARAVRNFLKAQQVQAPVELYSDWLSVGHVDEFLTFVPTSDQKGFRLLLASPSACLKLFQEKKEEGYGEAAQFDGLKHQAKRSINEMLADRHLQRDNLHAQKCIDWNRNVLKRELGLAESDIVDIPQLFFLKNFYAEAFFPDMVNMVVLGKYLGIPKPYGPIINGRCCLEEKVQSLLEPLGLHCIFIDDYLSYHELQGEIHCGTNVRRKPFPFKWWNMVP
Put plainly: Ratio of Kinact to Ki for human PAD1 using BAEE as substrate after 30 mins.

The target of test [2] is Protein-arginine deiminase type-4 (Homo sapiens) (UniProt Q9UM07). Put plainly: Ratio of Kinact to Ki for human PAD4 using BAEE as substrate after 30 mins.
Sequence of Protein-arginine deiminase type-4 (Homo sapiens) (Q9UM07 whole entry): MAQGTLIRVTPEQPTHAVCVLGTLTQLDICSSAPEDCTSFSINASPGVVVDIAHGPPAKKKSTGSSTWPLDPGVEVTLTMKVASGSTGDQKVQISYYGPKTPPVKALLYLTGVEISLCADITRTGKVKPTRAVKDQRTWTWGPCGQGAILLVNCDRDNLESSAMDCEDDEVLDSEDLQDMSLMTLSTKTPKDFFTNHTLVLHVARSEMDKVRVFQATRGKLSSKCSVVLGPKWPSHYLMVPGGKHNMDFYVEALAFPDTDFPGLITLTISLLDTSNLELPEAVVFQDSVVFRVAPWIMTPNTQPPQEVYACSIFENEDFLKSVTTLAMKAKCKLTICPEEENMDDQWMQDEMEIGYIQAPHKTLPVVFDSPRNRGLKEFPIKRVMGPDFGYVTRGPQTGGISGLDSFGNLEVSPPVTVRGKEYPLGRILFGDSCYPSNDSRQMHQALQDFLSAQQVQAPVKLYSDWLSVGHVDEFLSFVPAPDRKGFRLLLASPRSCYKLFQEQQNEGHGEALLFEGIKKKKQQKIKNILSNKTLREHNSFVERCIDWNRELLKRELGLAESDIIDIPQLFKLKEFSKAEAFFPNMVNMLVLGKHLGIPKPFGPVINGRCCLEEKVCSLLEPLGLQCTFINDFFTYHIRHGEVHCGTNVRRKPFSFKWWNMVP
Test [3] has as its target Protein-arginine deiminase type-2 (Mus musculus) (UniProt Q08642). The experiment in a line: Ratio of Kinact to Ki for mouse PAD2 using BAEE as substrate after 30 mins.

Sequence of Protein-arginine deiminase type-2 (Mus musculus) (Q08642 whole entry): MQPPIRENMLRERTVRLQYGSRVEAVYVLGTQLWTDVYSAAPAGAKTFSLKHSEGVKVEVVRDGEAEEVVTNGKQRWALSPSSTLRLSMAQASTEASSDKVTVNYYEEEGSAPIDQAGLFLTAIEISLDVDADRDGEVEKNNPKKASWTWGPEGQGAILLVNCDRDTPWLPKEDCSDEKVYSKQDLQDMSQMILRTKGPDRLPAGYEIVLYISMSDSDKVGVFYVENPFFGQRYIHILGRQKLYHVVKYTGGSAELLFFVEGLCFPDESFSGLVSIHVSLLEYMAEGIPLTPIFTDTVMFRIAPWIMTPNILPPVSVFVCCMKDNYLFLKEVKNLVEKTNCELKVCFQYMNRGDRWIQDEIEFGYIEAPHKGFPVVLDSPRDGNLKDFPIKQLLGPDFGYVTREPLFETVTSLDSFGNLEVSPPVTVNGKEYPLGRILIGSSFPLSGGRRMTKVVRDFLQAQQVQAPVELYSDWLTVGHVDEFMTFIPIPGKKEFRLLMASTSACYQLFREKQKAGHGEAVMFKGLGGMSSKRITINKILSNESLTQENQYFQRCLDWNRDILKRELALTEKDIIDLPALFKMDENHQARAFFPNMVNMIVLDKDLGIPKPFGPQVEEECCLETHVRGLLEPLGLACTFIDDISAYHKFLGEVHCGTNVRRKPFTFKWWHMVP

On to `COC(=O)[C@H](CCNC(=N)CCl)NC(C)=O`, for which the values for the Ratio in test [1], in test [2] and in test [3] were 111 M⁻¹ min⁻¹, 183 M⁻¹ min⁻¹ and 50 M⁻¹ min⁻¹, respectively.
The matching figures for `N=C(N)CCl`: 32 M⁻¹ min⁻¹, 60 M⁻¹ min⁻¹ and 9 M⁻¹ min⁻¹.
As for `COC(=O)[C@H](CCCCNC(=N)CCl)NC(C)=O`, the Ratio was 62 M⁻¹ min⁻¹ in test [1], 50 M⁻¹ min⁻¹ in test [2] and 120 M⁻¹ min⁻¹ in test [3].
For `COC(=O)[C@H](CCCNC(=N)CCl)NC(C)=O` the same measures were 497 M⁻¹ min⁻¹, 865 M⁻¹ min⁻¹ and 167 M⁻¹ min⁻¹.
